The text below walks through data of ChEMBL document CHEMBL4673323, “Novel molecular hybrids of indoline spiropyrans and α-lipoic acid as potential photopharmacological agents: Synthesis, structure, photochromic and biological properties” (Bioorg Med Chem Lett, 2021).

The nature of series [1]: Cytotoxicity against human HeLa cells assessed as effect on cell viability at 500 uM measured after 24 hrs (Rvb (2% DMSO) = 93.5 +/- 3.19 %). Particulars: read-out: Activity. It counts as cell-based.
Series [2] in a line: Cytotoxicity against human HeLa cells assessed as effect on cell viability at 2 mM measured after 24 hrs (Rvb (8% DMSO) = 79.08 +/- 10.78 %). Type of series: cell-based. To be noted: read-out: Activity.
Series [3] relates to HeLa. The series is described as follows: Cytotoxicity against human HeLa cells assessed as decrease in cell viability measured after 24 hrs. Type of series: cell-based.
A short description of series [4]: Cytotoxicity against human HeLa cells assessed as decrease in cell viability at 2 mM measured after 24 hrs relative to 8% DMSO control. Type of series: cell-based. Particulars: read-out: INH.
Series [5] can be described thus: Cytotoxicity against human HeLa cells assessed as decrease in cell viability at 500 uM measured after 24 hrs relative to 2% DMSO control. It counts as cell-based. To be noted: read-out: INH.
Series [6] can be described thus: Photochromic activity assessed as photoinduced isomerization by measuring increase in intensity of the absorption at 568 to 574 nm by UV spectra.
The test system of series [7] is HeLa. The series is described as follows: Antioxidant activity in human HeLa cells assessed as decrease in mitochondrial ROS at 500 uM measured after 24 hrs by CellROX reagent based flow cytometry relative to control. Type of series: functional.
The subject of series [8] is HeLa. The series can be described thus: Antioxidant activity in human HeLa cells assessed as increase in cellular thiol level at 2 mM measured after 24 hrs by Thiol-tracker violet molecular probe based assay relative to control. Type of series: functional.
Series [9] deals with HeLa. The series can be described thus: Antioxidant activity in human HeLa cells assessed as decrease in nuclear ROS at 500 uM measured after 24 hrs by CellROX reagent based flow cytometry relative to control. It counts as functional. A general note: Flow cytometry measures light scatter and fluorescence of single cells or particles in a stream.
In series [10] the test system is HeLa. The series can be described thus: Antioxidant activity in human HeLa cells assessed as increase in cellular thiol level at 500 uM measured after 24 hrs by Thiol-tracker violet molecular probe based assay. Type of series: functional, cell-based.
Series [11] relates to HeLa. The series can be described thus: Antioxidant activity in human HeLa cells assessed as decrease in cytosolic ROS at 500 uM measured after 24 hrs by CellROX orange reagent based flow cytometry. Type of series: functional, cell-based.
Series [12] in a line: Effect on biochemical parameters of gross oxidative status in human HeLa cells at 500 uM measured after 24 hrs relative to control. It counts as ADME, cell-based.
Series [13] concerns HeLa. The series can be described thus: Antioxidant activity in human HeLa cells assessed as increase in cellular thiol level at 500 uM measured after 24 hrs by Thiol-tracker violet molecular probe based assay relative to control. It counts as functional.
For series [14], the system named is HeLa. The series is described as follows: Antioxidant activity in human HeLa cells assessed as decrease in mitochondrial ROS at 500 uM measured after 24 hrs by CellROX reagent based flow cytometry. Type of series: functional, cell-based.
The subject of series [15] is HeLa. The series is described as follows: Antioxidant activity in human HeLa cells assessed as decrease in cytosolic ROS at 500 uM measured after 24 hrs by CellROX orange reagent based flow cytometry relative to control. Type of series: functional.
Series [16] concerns HeLa. The series is described as follows: Antioxidant activity in human HeLa cells assessed as decrease in nuclear ROS at 500 uM measured after 24 hrs by CellROX reagent based flow cytometry. Type of series: functional, cell-based.

Active and inactive are the calls of the source. The calls are words filed in the database; no cut-off is given here.

As usually defined, the IC50 is the midpoint of a concentration-inhibition curve. For `COc1ccc2c(c1)C(C)(C)C1(C=Cc3c(ccc4ccc(O)cc34)O1)N2C` (stereo unspecified), the viability at 24 h, 500 µM in series [1] was determined as 4.19%. Moreover, in [2], the viability at 24 h, 2000 µM came out at 5%. For the same molecule, the IC50 with HeLa [3] amounted to 46.2 µM. Further, the cytotoxicity at 24 h, 2000 µM in series [4] is 93.7%. Moreover, in series [5], the cytotoxicity at 24 h, 500 µM amounted to 98.4%.

With `CN1c2ccccc2C(C)(C)C12C=Cc1c(ccc3ccc(O)cc13)O2` (stereo unspecified), the viability at 24 h, 500 µM in [1] is 84.5%. In addition, in [2], the viability at 24 h, 2000 µM was 66.5%. Besides, the cytotoxicity at 24 h, 500 µM in series [5] was determined as 11.9%. The outcome in series [6] was inactive.

For orientation: inhibition means the change of the read-out against control, counted positive when it falls. `O=C(O)CCCCC1CCSS1` (stereo not drawn) [LIPOIC ACID, ALPHA]: the inhibition at 500 µM in the series with HeLa [7] and with HeLa [9] was 31% each time. For the same molecule, the viability at 24 h, 500 µM in series [1] is 94.7%. Besides, the viability at 24 h, 2000 µM in [2] was 51.8%. In [4], the cytotoxicity at 24 h, 2000 µM was 32.7%. In addition, the Activity with HeLa [8] stood at 90%.

With `CN1c2ccccc2C(C)(C)C12C=Cc1c(ccc3ccc(OC(=O)CCCCC4CCSS4)cc13)O2` (stereo unspecified), in series [1], the viability at 24 h, 500 µM turned out to be 95%. The viability at 24 h, 2000 µM in series [2] stood at 73.4%. In addition, the outcome in the series with HeLa [10] was Active. Besides, the inhibition result with HeLa [11] was “inactive”. The Activity entry is “Non-Toxic” in series [12] and 35% in the series with HeLa [13]. The result in series [6] was inactive.

For the molecule `COc1ccc2c(c1)C(C)(C)C1(C=Cc3c(ccc4ccc(OC(=O)CCCCC5CCSS5)cc34)O1)N2C` (stereo unspecified), the viability at 24 h, 500 µM in [1] is 89.3%. The inhibition entry in the series with HeLa [14] and in the series with HeLa [16] was “inactive” in each case. Further, in the series on HeLa [15], the inhibition at 500 µM turned out to be 78%. Besides, in series [2], the viability at 24 h, 2000 µM is 77.9%. Moreover, the outcome (in the series with HeLa [10]; in series [6]) was Active. Also, the Activity with HeLa [13] came out at 30%. Also, in [5], the cytotoxicity at 24 h, 500 µM was 8.3%.
